# Data: patent publication US9421298B2, “Tissue adhesive based on nitrogen-modified aspartates” (Adhesys Medical GmbH, priority 2011, dated 2016)
# System: L929 cells
# Test: Cytotoxicity in accordance with ISO 10993-5:2009 with L929 cells
# Assay type: cell-based
# Settings: prepolymer A cured with an equivalent amount of curing agent
# Procedure: The prepolymer A was cured with an equivalent amount of 2. The cytotoxicity was measured in accordance with ISO 10993-5:2009 with L929 cells. […] The system can therefore not be classed as being cytotoxic.
smiles,measurement,value
"CCOC(=O)CC(NCCCCCCNCCCCCCNC(CC(=O)OCC)C(=O)OCC)C(=O)OCC (stereo not shown) [Curing agent 2, triethyl 4-oxo-3-oxa-7,14,21-triazatricosane-6,22,23-tricarboxylate]",Cytotoxicity (cell viability),No reduction in cell viability
